Laboratory results reported in patent US10981858B2, “Dendrimer and formulations thereof” (Priostar Pty Ltd, priority 2015, dated 2021).
Entries after “also recorded” stand apart in the source; their conditions may differ. Each block holds one compound with its values, some of them ahead of it.

Assays:
Format in all cases: physicochemical
[1] = 2,4-D/dendrimer hard water testing (clarity, sedimentation); conditions: 30° C.; for Appearance at Addition / Appearance/Sedimentation After 24 Hrs.: 2,4-D Amine in 342 ppm hard water; for Appearance of 2,4-D solutions in hard water: all concentrations tested (from 1.4 to 10%), 342 ppm hard water, 24 hours
Experimental: 342 ppm hard water was prepared as per CIPAC method MT18. The hard water was heated to 30° C. […]

[2] = 2,4-D/dendrimer formulation stability study (crystallisation at 0° C.); conditions: for Crystallisation After 7 Days at 0° C. With Seeding: 2,4-D Amine 625 g/l seeded with 2,4-D Amine salt; for Crystallisation After 7 Days at 0° C.: without seeding
Experimental: 20 ml of 2,4-D Amine(2,4-D 625 g/l market sample, Rygel, Adama Australia) was transferred to 25 ml clear vials and dendrimer added (with or without 30% Dithethylene Glycol). Caps were tightened to ensure no moisture entered the vials. Formulations were placed in a freezer at 0° C. […] In a related experiment, formulations were prepared with seeding with 2,4-D Amine salt (Shanghai Biochemical Sci. Ltd., purity 98 in order to hasten rate of crystallisation. The results are provided in Table 2.

[3] = Solubilization of water insoluble surfactant Ethoxylated Lauryl alcohol-3 M in LA-9 solution; conditions: 50 g, until hazy
Experimental: 5% w/w aqueous solution of Ethoxylated Lauryl alcohol-9 mole (water soluble surfactant) was prepared in Deionized water (2.5 g in 47.5 ml). Dendrimer compounds 1 and 4 were diluted 70:30 w/w in Diethylene glycol. The 5% Ethoxylated Lauryl alcohol-9 M (LA-9) solution was combined with dendrimer DEG solution at 90:10, 80:20 and 70:30 w/w (total weight 50 g).
Ethoxylated lauryl alcohol-3 mole (water insoluble surfactant) was added dropwise, while stirring, to the 50 g LA-9 solution (with or without dendrimer), until it became hazy. The weight of Ethoxylated lauryl alcohol-3 M added was recorded.

[4] = Solubilization of Methylated seed oil (MSO) in aqueous LA-9 solution; conditions: 50 g, until hazy
Experimental: 10% aqueous solution of Ethoxylated Lauryl alcohol-9 mole (water soluble surfactant) was prepared in Deionized water (5 g in 45 ml). Dendrimer compounds 1 and 4 were prepared 70:30 w/w in Diethylene glycol (DEG). The 10% Ethoxylated Lauryl alcohol-9 M (LA-9) solution was combined with dendrimer DEG solution at 80:20 and 60:40 w/w (total weight of 50 g).
Methylated seed oil (MSO) (STEPOSOL-ROE-W, canola oil methyl ester, Stepan) was added dropwise under stirring to the 10% LA-9 solution (with or without dendimers), until the solution became hazy. Weight of MSO added was recorded.

[5] = Cloud point studies; conditions: 1 gm. dendrimer solution (70:30 w/w dendrimer:Diethylene Glycol) in 99 gm. of 10% NaOH solution
Experimental: 1 gm. of dendrimer solution (70:30 w/w dendrimer [Compound 1 or Compound 4]:Diethylene Glycol) was dissolved in 99 gm. of 10% NaOH solution in Deionized water and heated until hazy. Temperature of the solution was measured using calibrated thermometer.

[6] = Water value of dendrimers with solvent (Solvesso 200); conditions: 50 g aqueous solution, 7% dendrimer and 3% DEG; until hazy
Experimental: 50 g Aqueous solution of Dendrimer were prepared containing 7% dendrimer and 3% Diethylene glycol (DEG) by weight. Solvesso 200 (C10-13 aromatic hydrocarbon solvent) was added dropwise under stirring until the solution became hazy. Weight of Solvesso added was recorded.

[7] = Dynamic viscosity of aqueous dendrimer solution (Brookfield); conditions: aqueous solution 7% dendrimer and 3% DEG, ambient temperature, spindle no. 63 at 50 rpm
Experimental: 50 g aqueous solution of dendrimer (7% dendrimer and 3% DEG) was prepared in deionized water in a beaker, and subjected to dynamic viscosity measurement using Brookfield viscometer at ambient temperature. Viscosity studies were conducted using spindle no. 63 at 50 rpm. It was observed that viscosity of Compound-1 solution was 1.8 cps and Compound-4 solution was 0.6 cps.

[8] = Tebuconazole 600 SC hard water testing: suspensibility, column thinning, sedimentation; conditions: 2 ml Tebuconazole 600 SC, dendrimer 0.7%, in 98 ml 342 ppm hard water, 30° C., 24 hours
Experimental: (§1) Formulations were prepared by mixing water, surfactant, dispersing agent, wetting agent and antifoam together then gradually adding active. High shear mix for 20-30 minutes to disperse formulation ingredients in water before adding the active and mixing until homogeneous. The mixture was milled on a Dyno bead mill (1 m/s) with 0.4-0.6 mm beads at max. 40° C. until particle size was <4 um. Dendrimer compound (in DEG) was added and stirred for 20 minutes. Thickener and antimicrobial was then added and stirred for 20 minutes. Formulations were deaerated by sonication.
98 ml of 342 ppm hard water (prepared as per CIPAC method MT18) was heated to 30° C. before adding 2 ml. of Tebuconazole 600 SC formulation. Temperature was maintained at 30° C. for 24 hours and formulation characteristics were studied for suspension stability, wetting, column thinning/separation and sedimentation.

[9] = Tebuconazole 600 SC wetting study in hard water; conditions: one drop Tebuconazole 600 SC, dendrimer 0.7%, in 342 ppm hard water at 30° C.
Experimental: as §1
Wetting studies were conducted by placing one drop of Tebuconazole 600 SC formulation in 342 ppm hard water at 30° C. and recording the time when all the formulation particles were wet and dispersed in water.

[10] = Tebuconazole 600 SC formulation viscosity (Table 8); conditions: dendrimer 0.7%
Experimental: as §1

[11] = Additional tebuconazole formulations: suspension stability and viscosity; conditions: additional tebuconazole formulation, 0.8% additive
Excerpt: Additional formulations were developed, and formulation characteristics were studied for suspension stability, and viscosity.

[12] = 2,4-D Amine 625 g/l, dendrimer 2%
[13] = 2,4-D Amine 625 g/l, dendrimer 5%
[14] = 2,4-D Amine 625 g/l, dendrimer 10%

Appearance at Addition ([1]; dendrimer 1.4% (w/w), 0.6% DEG): Clear | Appearance/Sedimentation After 24 Hrs. ([1]; dendrimer 1.4% (w/w), 0.6% DEG): Hazy with sediment | Appearance at Addition ([1]; dendrimer 2% (w/w)): Clear | Appearance/Sedimentation After 24 Hrs. ([1]; dendrimer 2% (w/w)): Hazy with sediment | Appearance at Addition ([1]; dendrimer 3.5% (w/w), 1.5% DEG): Clear | Appearance/Sedimentation After 24 Hrs. ([1]; dendrimer 3.5% (w/w), 1.5% DEG): Hazy with sediment | Appearance at Addition ([1]; dendrimer 5% (w/w)): Clear | Appearance/Sedimentation After 24 Hrs. ([1]; dendrimer 5% (w/w)): Hazy with sediment | Appearance at Addition ([1]; dendrimer 7% (w/w), 3% DEG): Clear | Appearance/Sedimentation After 24 Hrs. ([1]; dendrimer 7% (w/w), 3% DEG): Hazy with sediment | Appearance at Addition ([1]; dendrimer 10% (w/w)): Clear | Appearance/Sedimentation After 24 Hrs. ([1]; dendrimer 10% (w/w)): Hazy with sediment | Appearance of 2,4-D solutions in hard water [1]: hazy solutions with sediment | Crystallisation After 7 Days at 0° C. With Seeding ([2]; dendrimer 1.4%, Diethylene Glycol 0.6%): Crystallised | Crystallisation After 7 Days at 0° C. With Seeding ([2]; dendrimer 3.5%, Diethylene Glycol 1.5%): Crystallised | Crystallisation After 7 Days at 0° C. With Seeding ([2]; dendrimer 7%, Diethylene Glycol 3%): Crystallised | Crystallisation at 0° C. with seeding ([2]; 2,4-D Amine 625 g/l, all the dosages of dendrimer): crystallised | Crystallisation After 14 Days at 0° C. ([2]; 2,4-D Amine 625 g/l, dendrimer 1.4%, Diethylene Glycol 0.6%): Crystallised | Crystallisation After 14 Days at 0° C. [2, 12]: Crystallised | Crystallisation After 14 Days at 0° C. ([2]; 2,4-D Amine 625 g/l, dendrimer 3.5%, Diethylene Glycol 1.5%): Crystallised | Crystallisation After 14 Days at 0° C. [2, 13]: Crystallised | Crystallisation After 14 Days at 0° C. ([2]; 2,4-D Amine 625 g/l, dendrimer 7%, Diethylene Glycol 3%): Crystallised | Crystallisation After 14 Days at 0° C. [2, 14]: Crystallised | Crystallisation After 7 Days at 0° C. [2, 14]: No | Quantity LA-3 added to LA-9 solution ([3]; ratio 5% LA-9 solution:dendrimer/DEG solution 70:30 (w/w), 21% dendrimer (w/w)): 1.96 g | Quantity LA-3 added to LA-9 solution ([3]; ratio 5% LA-9 solution:dendrimer/DEG solution 80:20 (w/w), 14% dendrimer (w/w)): 2.00 g | Quantity LA-3 added to LA-9 solution ([3]; ratio 5% LA-9 solution:dendrimer/DEG solution 90:10 (w/w), 7% dendrimer (w/w)): 1.83 g | Quantity MSO added to 10% LA-9 solution ([4]; ratio LA-9 solution:dendrimer/DEG solution 60:40 (w/w), 28% dendrimer (w/w)): 0.56 g | Quantity MSO added to 10% LA-9 solution ([4]; ratio LA-9 solution:dendrimer/DEG solution 80:20 (w/w), 14% dendrimer (w/w)): 0.54 g | Cloud point (temperature at which solution turned hazy) [5]: 65 °C | Quantity Solvesso 200 added [6]: 1.31 g | Dynamic viscosity [7]: 1.8 cps | Suspensibility: Sediment [8]: 0.5 mL⁻¹ | Suspensibility: nature of sediment [8]: Compact | Suspensibility: Column Thinning ([8]; top thinning): 10 ml. Top | Wetting [9]: 33.3 s | Viscosity 0 C. ([10]; 0 C.): 786 | Viscosity 54 C. ([10]; 54 C.): 743 | Viscosity RT ([10]; RT): 720 cP | Observation: consistency [11]: Pseudoplastic liquid, | Observation: sediment at 0 C. ([11]; 0 C.): no sediment at 0 C. | Viscosity (cP) 0 C. ([11]; 0 C.): 2844 cP | Viscosity (cP) RT ([11]; RT): 2566 cP
Structure (SMILES): CCC(COCC(O)CN(CCO)CCO)(COCC(O)CN(CCO)CCO)COCC(O)CN(CCO)CCO (stereo not shown) [Compound 1, 9-((3-(bis(2-hydroxyethyl)amino)-2-hydroxypropoxy)methyl)-9-ethyl-3,15-bis(2-hydroxyethyl)-7,11-dioxa-3,15-diazaheptadecane-1,5,13,17-tetraol, reference compound]
Crystallisation After 7 Days at 0° C. [2, 12]: resulted in crystallisation; also recorded: Crystallised | Crystallisation After 7 Days at 0° C. [2, 13]: resulted in crystallisation; also recorded: Crystallised

Appearance at Addition ([1]; dendrimer 2% (w/w)): Clear | Appearance/Sedimentation After 24 Hrs. ([1]; dendrimer 2% (w/w)): Hazy with sediment | Appearance at Addition ([1]; dendrimer 5% (w/w)): Clear | Appearance/Sedimentation After 24 Hrs. ([1]; dendrimer 5% (w/w)): Hazy with sediment | Appearance at Addition ([1]; dendrimer 10% (w/w)): Clear | Appearance/Sedimentation After 24 Hrs. ([1]; dendrimer 10% (w/w)): Hazy with sediment | Appearance of 2,4-D solutions in hard water [1]: hazy solutions with sediment
Structure (SMILES): CCC(COCC(O)CN(CCOC)CCOC)(COCC(O)CN(CCOC)CCOC)COCC(O)CN(CCOC)CCOC (stereo not shown) [Compound 8, 11-((3-(bis(2-methoxyethyl)amino)-2-hydroxypropoxy)methyl)-11-ethyl-5,17-bis(2-methoxyethyl)-2,9,13,20-tetraoxa-5,17-diazahenicosane-7,15-diol]
